# Laboratory results: patent US20110195030A1, “NANOPARTICLE COMPOSITIONS COMPRISING LIQUID OIL CORES” (The University of North Carolina at Chapel Hill, priority 2008, published 2011)
# What was measured:
# [1] = In-vitro release of paclitaxel by dialysis method; assay type: physicochemical; conditions: 37° C., PBS with 0.1% Tween 80
# Procedure: PX release studies (n=4) were completed at 37° C. by the dialysis method using PBS with 0.1% Tween 80 as release medium. Before release studies, the solubility of PX in release medium was measured. Briefly, extra amounts of paclitaxel were added into 2 mL of release medium until saturation was attained. After centrifuge, the concentration of PX in the supernatant was determined by HPLC as described above. For release studies, one milliliter (1 mL) of PX G78 NPs was purified with a Microcon Y-100 and re-suspended into 1 mL D.I. water. The concentration of PX in re-suspended PX G78 NPs was measured by HPLC as described above. Eight hundred microliters of purified PX G78 NPs, PX BTM NPs and reconstituted lyo BTM NPs were placed into a regenerated cellulose dialysis membrane (MWCO 8000 Da) submerged in 40 mL PBS with 0.1% Tween 80, respectively, and then shaken in a water bath at a speed of 150 rpm at 37° C. Free PX also was used as a control. At predetermined times, 200 μL aliquots were taken from outside of the dialysis membrane, and replaced with 200 μL fresh media. PX was measured by HPLC as described above. Mass balance was confirmed by measuring PX concentration inside the dialysis membranes after 72 h. In addition, the particle sizes of PX NPs inside the dialysis membranes were measured when release studies were terminated (at 72 h).
# Solubility of paclitaxel = assay type: physicochemical; conditions: PBS with 0.1% Tween 80 (release medium), aqueous with cosolvent or surfactant or cyclodextrin, thermodynamic from solid; PBS with 0.1% Tween 80, room temperature, mean ± SD, n = 3
# [2] = reported in literature; cited from earlier work
structure (smiles),measurement,setting,value
CC(=O)O[C@H]1C(=O)[C@@]2(C)[C@H]([C@H](OC(=O)c3ccccc3)[C@]3(O)C[C@H](OC(=O)[C@H](O)[C@@H](NC(=O)c4ccccc4)c4ccccc4)C(C)=C1C3(C)C)[C@]1(OC(C)=O)CO[C@@H]1C[C@@H]2O [Paclitaxel],time to complete release,[1],≤ 4 h
same,solubility,Solubility of paclitaxel,10.8 ± 0.3 µg/mL
same,aqueous solubility,[2],0.7 to 30 µg/mL
